From ChEMBL document CHEMBL6177939, “The role of silicon in drug discovery: a review” (RSC Med Chem, 2024)
pEC50, pIC50, pKi: −log10 of the molar value. In brackets after ≈: the same amount, converted by molar mass. Values belong to the compound of their own block, whether it stands above or below them.

Tests used:
[1] = biological target: Acetylcholinesterase (Homo sapiens, UniProt P22303); assay: Binding affinity to AChE (unknown origin) using acetylthiocholine iodide as substrate assessed as inhibition constant by Ellman's method
Sequence of Acetylcholinesterase (P22303 whole entry): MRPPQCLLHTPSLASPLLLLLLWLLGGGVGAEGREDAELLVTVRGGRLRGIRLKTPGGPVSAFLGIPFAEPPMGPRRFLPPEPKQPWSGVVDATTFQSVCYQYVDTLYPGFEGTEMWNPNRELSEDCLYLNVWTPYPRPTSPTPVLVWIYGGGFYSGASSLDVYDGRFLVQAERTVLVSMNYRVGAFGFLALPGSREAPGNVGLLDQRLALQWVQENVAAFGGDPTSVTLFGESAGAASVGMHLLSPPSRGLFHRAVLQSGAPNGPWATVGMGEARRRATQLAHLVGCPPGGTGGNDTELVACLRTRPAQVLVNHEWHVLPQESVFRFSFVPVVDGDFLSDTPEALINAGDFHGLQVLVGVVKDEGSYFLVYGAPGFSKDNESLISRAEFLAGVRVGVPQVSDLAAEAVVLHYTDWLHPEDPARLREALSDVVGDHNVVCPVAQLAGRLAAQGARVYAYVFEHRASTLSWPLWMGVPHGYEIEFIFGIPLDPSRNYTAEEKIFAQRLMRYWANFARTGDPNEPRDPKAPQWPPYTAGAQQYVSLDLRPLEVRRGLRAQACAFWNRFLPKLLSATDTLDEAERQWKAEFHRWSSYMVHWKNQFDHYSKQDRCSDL

[2] = In vivo inhibition of AChE activity in Sprague-Dawley rat brain assessed as effective dose; assay type: functional
[3] = Acute toxicity in ip dosed Sprague-Dawley rat assessed as lethal dose; assay type: organism-based; conditions: in vivo
[4] = tested on: Pseudomonas aeruginosa; assay: Antibacterial activity against Pseudomonas aeruginosa PAO1 assessed as reduction in bacterial growth by broth micro-dilution method; assay type: functional
[5] = tested on: Staphylococcus aureus; assay: Antibacterial activity against methicillin-resistant Staphylococcus aureus assessed as reduction in bacterial cell growth by broth micro-dilution method; assay type: functional
[6] = tested on: Staphylococcus epidermidis; assay: Antibacterial activity against methicillin-resistant Staphylococcus epidermidis 3382 assessed as reduction in bacterial cell growth by broth micro-dilution method; assay type: functional
[7] = tested on: Escherichia coli; assay: Antibacterial activity against Escherichia coli; assay type: functional
[8] = tested on: Bacillus subtilis; assay: Antibacterial activity against Bacillus subtilis; assay type: functional
[9] = tested on: Human immunodeficiency virus 1; assay: Antiviral activity against HIV-1 infected in human MT4 cells; assay type: functional, organism-based; conditions: Human immunodeficiency virus 1, MT4
[10] = tested on: Giardia intestinalis; assay: Antiparasitic activity against Giardia intestinalis assessed as reduction in parasite growth incubated for 24 hrs by MTT assay; assay type: functional, organism-based; conditions: Giardia duodenalis
[11] = tested on: Trichomonas vaginalis; assay: Antiparasitic activity against Trichomonas vaginalis assessed as reduction in parasite growth measured for 24 hrs by MTT assay; assay type: functional, organism-based
[12] = biological target: T1, Angiotensin-converting enzyme (Homo sapiens, UniProt P12821); assay: Inhibition of ACE (unknown origin) using Hip-His-Leu-OH peptide as substrate by fluorimetric analysis
T1 sequence (P12821 whole entry): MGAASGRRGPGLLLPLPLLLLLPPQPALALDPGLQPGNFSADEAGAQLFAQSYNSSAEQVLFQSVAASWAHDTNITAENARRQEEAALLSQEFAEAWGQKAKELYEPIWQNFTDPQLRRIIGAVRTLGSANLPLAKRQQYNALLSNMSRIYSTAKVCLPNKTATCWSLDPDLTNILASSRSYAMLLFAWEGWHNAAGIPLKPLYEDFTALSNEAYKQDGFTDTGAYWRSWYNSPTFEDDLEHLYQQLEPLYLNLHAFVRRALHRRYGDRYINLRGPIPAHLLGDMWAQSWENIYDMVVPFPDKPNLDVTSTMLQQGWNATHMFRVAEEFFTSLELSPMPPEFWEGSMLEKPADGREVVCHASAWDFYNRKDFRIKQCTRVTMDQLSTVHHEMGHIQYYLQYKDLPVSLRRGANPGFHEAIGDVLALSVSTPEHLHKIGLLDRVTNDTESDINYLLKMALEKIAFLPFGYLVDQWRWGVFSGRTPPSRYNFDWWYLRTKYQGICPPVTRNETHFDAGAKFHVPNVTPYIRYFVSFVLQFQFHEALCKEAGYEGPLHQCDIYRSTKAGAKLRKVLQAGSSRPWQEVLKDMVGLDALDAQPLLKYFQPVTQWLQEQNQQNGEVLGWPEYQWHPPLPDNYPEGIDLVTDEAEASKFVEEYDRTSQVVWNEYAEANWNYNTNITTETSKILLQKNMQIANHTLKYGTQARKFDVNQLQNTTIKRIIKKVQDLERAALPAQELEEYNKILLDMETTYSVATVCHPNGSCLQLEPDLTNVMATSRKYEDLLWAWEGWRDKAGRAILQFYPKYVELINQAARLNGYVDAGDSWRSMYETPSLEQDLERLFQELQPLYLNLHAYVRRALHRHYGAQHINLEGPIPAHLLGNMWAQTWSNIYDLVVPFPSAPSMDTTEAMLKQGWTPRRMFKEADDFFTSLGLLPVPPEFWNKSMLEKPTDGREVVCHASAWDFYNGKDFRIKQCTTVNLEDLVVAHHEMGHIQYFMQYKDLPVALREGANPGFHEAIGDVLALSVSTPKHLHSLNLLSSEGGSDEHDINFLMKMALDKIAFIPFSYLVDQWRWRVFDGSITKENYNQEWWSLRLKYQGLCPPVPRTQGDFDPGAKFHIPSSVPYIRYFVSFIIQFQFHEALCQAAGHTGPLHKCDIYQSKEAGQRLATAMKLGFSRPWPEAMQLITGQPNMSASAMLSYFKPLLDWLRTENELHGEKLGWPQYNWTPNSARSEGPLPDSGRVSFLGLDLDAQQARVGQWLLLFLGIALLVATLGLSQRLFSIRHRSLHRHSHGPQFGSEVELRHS

[13] = tested on: HCT-8; assay: Cytotoxicity against human HCT-8 cells assessed as inhibition of cell growth at 5 ug/ml relative to control; assay type: functional
[14] = tested on: Bel-7402; assay: Cytotoxicity against human Bel-7402 cells assessed as inhibition of cell growth at 5 ug/ml relative to control; assay type: functional
[15] = tested on: Mus musculus; assay: Antiinflammatory activity against carrageenin-induced paw edema AKR mouse model assessed as inhibition of CPE at 0.01 micromol/kg, ip relative to control; assay type: functional; design: scale not given: the % may be the effect or the level left; conditions: dose 0.01 µmol/kg
[16] = Inhibition of soya bean lipoxygenase; design: species or system Glycine max
[17] = biological target: Interstitial collagenase (Homo sapiens, UniProt P03956); assay: Inhibition of MMP-1 (unknown origin)
Sequence of Interstitial collagenase (P03956 whole entry): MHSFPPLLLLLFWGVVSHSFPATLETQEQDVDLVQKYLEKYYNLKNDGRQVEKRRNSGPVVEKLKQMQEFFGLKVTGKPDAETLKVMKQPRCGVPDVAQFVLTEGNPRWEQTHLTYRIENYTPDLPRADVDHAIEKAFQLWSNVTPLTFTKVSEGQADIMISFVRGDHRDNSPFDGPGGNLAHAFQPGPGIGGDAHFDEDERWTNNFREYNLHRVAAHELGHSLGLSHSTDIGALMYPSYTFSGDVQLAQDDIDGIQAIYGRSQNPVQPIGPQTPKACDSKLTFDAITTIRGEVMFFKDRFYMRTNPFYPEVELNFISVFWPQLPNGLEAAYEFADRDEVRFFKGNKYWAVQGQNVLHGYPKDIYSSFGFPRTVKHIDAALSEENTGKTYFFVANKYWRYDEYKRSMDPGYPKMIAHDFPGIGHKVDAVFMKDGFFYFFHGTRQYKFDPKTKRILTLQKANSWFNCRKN

[18] = tested on: Aspergillus fumigatus; assay: Antifungal activity against Aspergillus fumigatus ATCC 66567 assessed as reduction in fungal growth; assay type: functional
[19] = tested on: Penicillium chrysogenum; assay: Antifungal activity against Penicillium chrysogenum ATCC 20044 assessed as reduction in fungal growth; assay type: functional
[20] = tested on: Fusarium solani; assay: Antifungal activity against Fusarium solani ATCC 20327 assessed as reduction in fungal growth; assay type: functional
[21] = tested on: Tetranychus cinnabarinus; assay: Toxicity in Tetranychus cinnabarinus assessed as lethal dose; assay type: organism-based
[22] = tested on: Plasmodium falciparum; assay: Antimalarial activity against chloroquine-sensitive Plasmodium falciparum NF54 assessed as reduction in parasite growth; assay type: functional, organism-based
[23] = tested on: Plasmodium falciparum; assay: Antimalarial activity against […] Plasmodium falciparum Dd2 assessed as reduction in parasite growth; assay type: functional, organism-based
[24] = Antiproliferative activity against human WHCO1 cells assessed as reduction in cell viability incubated for 48 hrs by MTT assay; assay type: functional, cell-based; conditions: WHCO1, 48 h
[25] = tested on: Human immunodeficiency virus 1; assay: Antiviral activity against HIV-1 IIIB infected in human MT2 cells assessed as reduction in virus-induced cytopathic effect incubated for 4 days by spectrophotometric based MTT assay; assay type: functional, organism-based; conditions: Human immunodeficiency virus 1, IIIB, MT2, 96 h
[26] = biological target: Human immunodeficiency virus type 1 reverse transcriptase (Human immunodeficiency virus 1, UniProt Q72547); assay: Inhibition of recombinant HIV-1 reverse transcriptase
[27] = tested on: Enterococcus durans; assay: Antibacterial activity against Enterococcus durans B-603 (all Russian collections of micro-organism) assessed as reduction in bacterial growth by broth micro-dilution method; assay type: functional
[28] = tested on: Bacillus subtilis; assay: Antibacterial activity against Bacillus subtilis B-407 (all Russian collections of micro-organism) assessed as reduction in bacterial growth by broth micro-dilution method; assay type: functional
[29] = biological target: T1, Angiotensin-converting enzyme; assay: Binding affinity to ACE (unknown origin) assessed as inhibition constant
[30] = tested on: Escherichia coli; assay: Antibacterial activity against Escherichia coli B-1238 (all Russian collections of micro-organism) assessed as reduction in bacterial growth by broth micro-dilution method; assay type: functional
[31] = tested on: Enterococcus durans; assay: Antibacterial activity against Enterococcus durans B-603 (all Russian collections of micro-organism) assessed as reduction in bacterial growth incubated for 24 hrs by broth micro-dilution method; assay type: functional
[32] = tested on: Bacillus subtilis; assay: Antibacterial activity against Bacillus subtilis B-407 (all Russian collections of micro-organism) assessed as reduction in bacterial growth incubated for 24 hrs by broth micro-dilution method; assay type: functional

Structure (SMILES): C[Si](C)(C)c1cccc(C(=O)C(F)(F)F)c1
pKi [1]: 10.33
ED50 [2]: 2.5 mg/kg
LD50 [3]: 180 mg/kg

Structure (SMILES): Fc1ccc(/N=C/c2c(OCc3cn(CCC[Si-]456OCC[N+]4(CCO5)CCO6)nn3)ccc3ccccc23)cc1 (configuration not stated)
MIC [4]: 13.2 µg/mL (≈ 23.6 µM)
MIC [5]: 3.25 µg/mL (≈ 5.79 µM)
MIC [6]: 3.25 µg/mL (≈ 5.79 µM)

MIC [7]: 0.765 µg/mL
MIC [8]: 0.8 µg/mL
Structure (SMILES): CCN(CC)CC.S=C(S)NCCC[Si-]123OCC[N+]1(CCO2)CCO3 (configuration not stated)

pEC50 [9]: 6.70
Structure (SMILES): Cc1cccc(C(O)c2c(C(C)C)c(=O)[nH]c(=O)n2COCc2ccccc2)c1 (configuration not stated)

Structure (SMILES): CC1C[N+]23CC(C)O[Si-]2(CCC/N=C/c2ccc4c5c6c(ccc25)C=CCC6=CC4)(O1)OC(C)C3 (configuration not stated)
pIC50 [10]: 4.27
pIC50 [11]: 5.76

pIC50 [12]: 7.37
Structure (SMILES): CC(CS)C(=O)N1C[Si](C)(C)C[C@H]1C(=O)O (mixture of isomers)

Structure (SMILES): CC(C)OP(=O)(NCCC[Si-]123OCC[N+]1(CCO2)CCO3)OCCn1c(=O)c(F)cn(C2CCCO2)c1=O (configuration not stated)
inhibition at 5 µg/mL [13]: 29.3%
inhibition at 5 µg/mL [14]: 29.3%

Structure (SMILES): C[Si](C)(C)CCC[n+]1ccsc1N.[I-]
Activity [15]: 55%
pIC50 [16]: 8.00

pIC50 [17]: ~7.39
Structure (SMILES): C[Si](C)(C)n1c(=S)c(=P(c2ccccc2)(c2ccccc2)c2ccccc2)/c1=N/c1ccccc1

MIC [18]: 0.08 µg/mL (≈ 0.218 µM)
MIC [19]: 0.08 µg/mL (≈ 0.218 µM)
MIC [20]: 0.08 µg/mL (≈ 0.218 µM)
Structure (SMILES): COc1ccc(O)c(/C=N/CCC[Si-]234OCC[N+]2(CCO3)CCO4)c1 (configuration not stated)

Structure (SMILES): C/C(=C(\OC(=O)C(C)(C)C)c1c(C)c(C)nn1C)c1ccc([Si](C)(C)C)cc1
LC50 [21]: 0.062 ng/mL (≈ 0.000156 µM)

Structure (SMILES): C[Si](C)(C)CNc1ccnc2cc(Cl)ccc12
pIC50 [22]: 6.61
pIC50 [23]: 6.28
pIC50 [24]: 5.36

pIC50 [26]: 5.22
Structure (SMILES): C[Si](O)(O[Si](C)(CCCn1cnc2c(N)ncnc21)c1ccccc1)c1ccccc1 (configuration not stated)
pIC50 [25]: 5.00

MIC [27]: 3.1 µg/mL (≈ 9.53 µM)
MIC [28]: 6.2 µg/mL (≈ 19.1 µM)
Structure (SMILES): O=C(NCCC[Si-]123OCC[N+]1(CCO2)CCO3)c1ccc[nH]1 (configuration not stated)

pKi [29]: 8.00
Structure (SMILES): CC(C)C[C@H](C[Si](O)(O)CNC(=O)CCc1ccccc1)C(=O)NC(=O)N[C@@H](CC(C)C)C(=O)O

MIC [30]: 62.5 µg/mL (≈ 165 µM)
Structure (SMILES): O=C(NCCC[Si-]123OCC[N+]1(CCO2)CCO3)c1cc2c([nH]1)CCCC2 (configuration not stated)

MIC [31]: 12.5 µg/mL (≈ 29.8 µM)
MIC [32]: 6.2 µg/mL (≈ 14.8 µM)
Structure (SMILES): COc1ccc(-c2cc(CNCCC[Si-]345OCC[N+]3(CCO4)CCO5)on2)cc1 (configuration not stated)
